Reference: the supplement of paper PMC10307832

Assays:
Assay in all cases: relative viability (nuclei count vs DMSO), 5 days (fraction); higher = more cells survive
[1] = compound: C1=CC2=C(C=CC(=C2)C=C3C(=O)NC(=NCC4=CC=CS4)S3)N=C1 [RO-3306] + Cc1cc(Nc2cc(N3CCN(C)CC3)nc(Sc3ccc(NC(=O)C4CC4)cc3)n2)n[nH]1 [Tozasertib] (partner 0.1 µM)
Method in brief: (§1)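 Lung cancer cell lines in 1536-well plates got either a single drug or a fixed anchor-drug dose together with five library-drug doses (not always all listed) in √10 steps, by pin tool, on the day after seeding. Nuclei were counted after 5 days, and relative viability is the treated-to-vehicle ratio of nuclei counts. Values are medians of duplicate plates.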

[2] = compound: O=S(=O)(c1ccccc1)N(CC(F)(F)F)c1ccc(C(O)(C(F)(F)F)C(F)(F)F)cc1 + CS(=O)(=O)CCNCc1ccc(-c2ccc3ncnc(Nc4ccc(OCc5cccc(F)c5)c(Cl)c4)c3c2)o1 [Lapatinib] (partner 2 µM)
Method in brief: as §1

[3] = compound: C1=CC2=C(C=CC(=C2)C=C3C(=O)NC(=NCC4=CC=CS4)S3)N=C1 [RO-3306] + Cc1nc(Nc2ncc(C(=O)Nc3c(C)cccc3Cl)s2)cc(N2CCN(CCO)CC2)n1 [Dasatinib] (partner 0.075 µM)
Method in brief: as §1

[4] = compound: O=S(=O)(c1ccccc1)N(CC(F)(F)F)c1ccc(C(O)(C(F)(F)F)C(F)(F)F)cc1 + Cc1nc(Nc2ncc(C(=O)Nc3c(C)cccc3Cl)s2)cc(N2CCN(CCO)CC2)n1 [Dasatinib] (partner 0.075 µM)
Method in brief: as §1

[5] = compound: O=S(=O)(c1ccccc1)N(CC(F)(F)F)c1ccc(C(O)(C(F)(F)F)C(F)(F)F)cc1 + CC(=O)c1c(C)c2cnc(Nc3ccc(N4CCNCC4)cn3)nc2n(C2CCCC2)c1=O [Palbociclib] (partner 0.5 µM)
Method in brief: as §1

## UMC-11
[1]; first compound 0.01 µM
  relative viability: 0.174
[1]; first compound 0.03162 µM
  relative viability: 0.225
[1]; first compound 0.1 µM
  relative viability: 0.199
[1]; first compound 0.3162 µM
  relative viability: 0.213
[1]; first compound 1 µM
  relative viability: 0.194
[2]; first compound 0.8 µM
  relative viability: 1.19
[2]; first compound 2.53 µM
  relative viability: 0.966
[2]; first compound 8 µM
  relative viability: 1.22
[3]; first compound 0.01 µM
  relative viability: 0.553
[3]; first compound 0.03162 µM
  relative viability: 0.341
[3]; first compound 0.1 µM
  relative viability: 0.432
[3]; first compound 0.3162 µM
  relative viability: 0.546
[3]; first compound 1 µM
  relative viability: 0.453
[4]; first compound 0.8 µM
  relative viability: 0.561
[4]; first compound 2.53 µM
  relative viability: 0.531
[4]; first compound 8 µM
  relative viability: 0.54
[5]; first compound 0.8 µM
  relative viability: 0.339
[5]; first compound 2.53 µM
  relative viability: 0.346
[5]; first compound 8 µM
  relative viability: 0.311
